The text below walks through data of DBAASP.

Test systems include Enterococcus faecalis A4; Staphylococcus aureus MR; Escherichia coli E416-7; Bacillus subtilis 168; Escherichia coli BL21; Escherichia coli ESBL; Staphylococcus aureus; Escherichia coli C25; Escherichia coli BW25113; Escherichia coli J2210; Escherichia coli JJ2489; Escherichia coli JW0013; Escherichia coli MC1041.
Common to all, as to assay: ≥ marks a high value that may be exact or a test limit, other limits are often not marked, values filed in µg/mL are converted to µM
Test [1] concerns Bacillus amyloliquefaciens ATCC 23842.
Test [2] relates to Bacillus cereus ATCC 14579.
Test [3] has as its system Bacillus licheniformis ATCC 14580.
The test system of test [4] is Bacillus subtilis ATCC 6051.
Test [5] concerns Enterococcus faecalis 1F-1.
In test [6] the test system is Enterococcus faecium 4W-9.
Test [7] concerns Enterococcus faecium 5F-10.
Test [8] concerns Escherichia coli ATCC 25922.
The test system of test [9] is Proteus mirabilis ATCC 35659.
For test [10], the system named is Pseudomonas aeruginosa PAO1.
In test [11] the test system is Salmonella enterica ATCC H9812.
Test [12] relates to Staphylococcus aureus 215.
Test [13] deals with Staphylococcus aureus ATCC 29213.
The subject of test [14] is Enterococcus faecium V286-17.
For test [15], the system named is Klebsiella pneumoniae ATCC 13883.
The test system of test [16] is Klebsiella pneumoniae E406-17.
The test system of test [17] is Pseudomonas aeruginosa E411-17.
Test [18] deals with Staphylococcus aureus JE2.
Test [19] has as its system Staphylococcus aureus M838-17.
The test system of test [20] is Enterococcus faecium ATCC BAA-2316.
The test system of test [21] is Escherichia coli ATCC 35218.
Test [22] has as its system Pseudomonas aeruginosa ATCC BAA-2114.
Test [23] relates to Staphylococcus aureus ATCC 33591.
For test [24], the system named is Staphylococcus aureus ATCC 43300.
The test system of test [25] is Staphylococcus aureus ATCC BAA-41.
Test [26] concerns Staphylococcus epidermidis ATCC 12228.
Test [27] deals with Staphylococcus aureus ATCC 25923.
Test [28] deals with Escherichia coli JW0368 ΔsbmA.
The test system of test [29] is Escherichia coli JW2778 ΔygdD.
Test [30] relates to Salmonella enterica subsp. enterica serovar Enteritidis MH91989.
The subject of test [31] is Salmonella typhimurium SL1344.

≈ marks a conversion by molar mass, not a printed value. Some results are limits rather than exact numbers.

For orientation: MIC means the smallest concentration in the dilution series that meets the test's criterion for growth inhibition. For `CC(=O)N[C@@H](CCC(=O)O)C(=O)N[C@@H](CC(C)C)C(=O)N[C@@H](CC(C)C)C(=O)N[C@@H](CO)C(=O)N[C@@H](CCCN=C(N)N)C(=O)N[C@H](C(=O)N[C@@H](CC(N)=O)C(=O)O)C(C)C` [ELLSRVN], the MIC (in test [1]; in [2]; in test [3]; in test [4]; in test [5]; against Enterococcus faecalis A4) was at least 154 µM throughout. The MIC in [6] is at least 154 µM; in test [7], at least 154 µM; in test [8], 77.1 µM (≈ 67.2 µg/mL); in [9], at least 154 µM; in test [10] it was 154 µM (≈ 134 µg/mL); in test [11], at least 154 µM. The values for the MIC (in [12]; in test [13]; in the test with Staphylococcus aureus MR) were at least 38.6 µM, 38.6 µM (≈ 33.6 µg/mL) and at least 38.6 µM, respectively.
Take `CC(C)C[C@H](NC(=O)[C@H](CC(C)C)NC(=O)[C@H](CCCCN)NC(=O)[C@H](CC(C)C)NC(=O)CNC(=O)[C@H](CC(C)C)NC(=O)[C@H](CO)NC(=O)[C@H](CC(C)C)NC(=O)[C@H](CC(C)C)NC(=O)[C@H](CC(C)C)NC(=O)[C@H](CO)NC(=O)[C@H](CC(C)C)NC(=O)CN)C(N)=O` [GLSLLLSLGLKLL]: the MIC in test [14] is 4.4 µM (≈ 5.89 µg/mL); in test [8], above 25 µM; against Escherichia coli E416-7, at least 50 µM; in [15] it was 25 µM (≈ 33.5 µg/mL); in [16], at least 50 µM; in test [17], at least 50 µM. In addition, the MIC in test [10] was above 25 µM; in test [18], 1.56 µM (≈ 2.09 µg/mL); in test [19], 3.1 µM (≈ 4.15 µg/mL).
Regarding `CC[C@H](C)[C@H](N)C(=O)N[C@H](C(=O)N[C@@H](CCCCN)C(=O)N[C@@H](CCCCN)C(=O)N[C@H](C(=O)N[C@H](C(=O)N[C@@H](CCCCN)C(=O)N[C@@H](CCCCN)C(=O)N[C@H](C(=O)N[C@H](C(=O)N[C@@H](CCCCN)C(=O)N[C@@H](CCCCN)C(=O)N[C@H](C(N)=O)[C@@H](C)CC)[C@@H](C)CC)[C@@H](C)CC)[C@@H](C)CC)[C@@H](C)CC)[C@@H](C)CC` [IIKKIIKKIIKKI], the MIC was 5 µM (≈ 7.89 µg/mL) in the test on Bacillus subtilis 168, 2.5 µM (≈ 3.95 µg/mL) in the test on Escherichia coli BL21, 12 µM (≈ 18.9 µg/mL) in the test with Escherichia coli ESBL and 7.5 µM (≈ 11.8 µg/mL) against Staphylococcus aureus.
`CC[C@H](C)[C@H](NC(=O)[C@H](CCCN=C(N)N)NC(=O)[C@H](CCC(N)=O)NC(=O)[C@@H](NC(=O)[C@@H](NC(=O)[C@H](CCCN=C(N)N)NC(=O)[C@H](CCCCN)NC(=O)[C@H](Cc1ccccc1)NC(=O)[C@@H](NC(=O)[C@@H]1CCCN1C(=O)[C@H](CO)NC(=O)[C@H](CC(C)C)NC(=O)[C@H](CCCCN)NC(=O)[C@H](CCCCN)NC(=O)[C@H](Cc1ccccc1)NC(=O)[C@H](CC(C)C)NC(=O)[C@H](CCCCN)NC(=O)[C@H](CCCCN)NC(=O)[C@H](Cc1ccccc1)NC(=O)[C@@H](N)CCCCN)C(C)C)[C@@H](C)CC)C(C)C)C(=O)N[C@@H](CCCCN)C(=O)N[C@@H](CC(=O)O)C(=O)N[C@@H](Cc1ccccc1)C(=O)N[C@@H](CC(C)C)C(=O)N[C@@H](CCCN=C(N)N)C(=O)O` [KFKKLFKKLSPVFKRIVQRIKDFLR]: the minimal inhibitory concentration (MIC) stood at 20 µM (≈ 63.3 µg/mL) in test [20]; 20 µM (≈ 63.3 µg/mL) in [8]; 20 µM (≈ 63.3 µg/mL) in [21]; 10 µM (≈ 31.6 µg/mL) in [22]; 20 µM (≈ 63.3 µg/mL) in [13]; 20 µM (≈ 63.3 µg/mL) in [23]. For the same compound, the MIC in test [24], in [25] and in test [26] was 20 µM (≈ 63.3 µg/mL) in each case.
Turning to `CC[C@H](C)[C@H](NC(=O)CNC(=O)[C@H](CCCN=C(N)N)NC(=O)[C@H](Cc1ccc(O)cc1)NC(=O)[C@@H](NC(=O)[C@H](CCCN=C(N)N)NC(=O)[C@H](Cc1ccccc1)NC(=O)[C@H](Cc1c[nH]c2ccccc12)NC(=O)[C@@H](N)CCCCN)C(C)C)C(=O)N[C@@H](Cc1ccc(O)cc1)C(=O)N[C@@H](CCCN=C(N)N)C(N)=O` [KWFRVYRGIYR], the figures for the MIC (against Escherichia coli C25; in [27]) were 8.5 µM (≈ 13.1 µg/mL) and 17 µM (≈ 26.2 µg/mL), respectively.
Regarding `CC[C@H](C)[C@H](NC(=O)[C@H](CCCN=C(N)N)NC(=O)[C@@H](N)CCCN=C(N)N)C(=O)N[C@@H](CCCCN)C(=O)N[C@@H](CCCCN)C(=O)N[C@@H](CCCN=C(N)N)C(=O)N1CCC[C@H]1C(=O)N1CCC[C@H]1C(=O)N[C@@H](CCCN=C(N)N)C(=O)N[C@@H](CC(C)C)C(=O)N1CCC[C@H]1C(=O)N[C@@H](CCCN=C(N)N)C(=O)N1CCC[C@H]1C(=O)N[C@@H](CCCN=C(N)N)C(=O)N1CCC[C@H]1C(=O)N[C@@H](CCCCN)C(=O)O` [RRIKKRPPRLPRPRPK], the MIC was determined as 0.078 µM (≈ 0.16 µg/mL) in the test on Escherichia coli BW25113; 0.167 µM (≈ 0.343 µg/mL) with Escherichia coli J2210; 0.12 µM (≈ 0.246 µg/mL) with Escherichia coli JJ2489; 0.06 µM (≈ 0.123 µg/mL) against Escherichia coli JW0013; 0.06 µM (≈ 0.123 µg/mL) in test [28]; 0.12 µM (≈ 0.246 µg/mL) in [29]. The MIC with Escherichia coli MC1041 came to 0.06 µM (≈ 0.123 µg/mL); in [30], 0.167 µM (≈ 0.343 µg/mL); in [31], 0.12 µM (≈ 0.246 µg/mL).
